Test results as given in paper PMC11189555, “Aryl amino acetamides prevent Plasmodium falciparum ring development via targeting the lipid-transfer protein PfSTART1” (Nature Communications, 2024).
pEC50: −log10 of the molar value. Values joined by “and” are separate entries in the source; they are usually repeats but may differ in a detail not shown here. Equal values may be shown once. Read-outs that look alike come from different tables or passages of the source.

Key:
CR-N330K parasites = experiment: Growth inhibition assay (72 h, LDH activity); type: cell-based, Plasmodium falciparum; conditions: for inhibition at 40 µM / inhibition at 0.00203221 µM / inhibition at 0.00609663 µM / inhibition at 0.0182899 µM / inhibition at 0.0548697 µM / inhibition at 0.164609 µM / inhibition at 0.493827 µM / inhibition at 1.48148 µM / inhibition at 4.44444 µM / inhibition at 13.3333 µM / pEC50: Plasmodium falciparum; for inhibition at 40 µM / inhibition at 0.00203221 µM / inhibition at 0.00609663 µM / inhibition at 0.0182899 µM / inhibition at 0.0548697 µM / inhibition at 0.164609 µM / inhibition at 0.493827 µM / inhibition at 1.48148 µM / inhibition at 4.44444 µM / inhibition at 13.3333 µM: read-out: Growth inhibition assay, NORMALISED; for inhibition at 0.00203221 µM: conc 2.03221 nM; for inhibition at 0.00609663 µM: conc 6.09663 nM; for inhibition at 0.0182899 µM: conc 18.2899 nM; for inhibition at 0.0548697 µM: conc 54.8697 nM; for inhibition at 0.164609 µM: conc 164.609 nM; for inhibition at 0.493827 µM: conc 493.827 nM; for inhibition at 1.48148 µM: conc 1481.48 nM; for inhibition at 4.44444 µM: conc 4444.44 nM
Procedure: Parasite growth assays with inhibitory compounds were performed as per[11] and are fully described in the Supplementary Information.
Molecular biology and transfection of P. falciparum: CRISPR method.
The full 5’ homology region of pfstart1 (either WT, N309K or N330K) was amplified from pPfSTART1-HA-2A-Neo-glmS with the same 5’ BglII primer and a new 3’ primer that replaced with PstI with SpeI and introduced a stop codon. The PCR product was then digested with BglII and SpeI and inserted into similarly digested p1.2 parasite vector2. The p1.2 vector had previously been inserted with a homology region amplified from the 3’ end of the pfstart1 gene (3’HB) to form a second homology block for double recombination. The primers used to amplify 3’HB are listed primers listed in […]
60 μg of p1.2-PfSTART1(WT/N309K/N330K) plasmid was linearised with KasI, precipitated in 3 M sodium acetate and ethanol (70% final concentration) overnight at -20°C. The DNA pellet was washed in cold 70% ethanol and resuspended in cytomix 3.
50 μ M of crRNA ( Table S 2) and 50 μM of tracRNA (Integrated DNA Technologies) were allowed to form a duplex (5 min at 95°C), and Cas9 enzyme (Integrated DNA Technologies) was added, and incubated for 20 min at room temperature 4. This crRNA -tracRNA -Cas9 mix was added to each DNA preparation and transfected to 3D7 ring parasites using the Bio -Rad Gene Pulser at 310 V and 950 μF.
Parasites containing the transfected DNA were selected using 2.5 nM WR99210 (Jacobus). Parasites lines were cloned using limiting dilution. Correct integration was tested by PCR (using primer START_5’UTR.F and START_Int.R1 , Table S 2), and sequencing was done using the primers START_3F and START_Int.R2 (Table S 2).
Growth inhibition assays. Synchronised ring-stage parasites (0.3-0.6% parasitemia, 2% haematocrit) were grown for 72 h in a serial-dilution of the compound under […]
and compound 4. Note that M-833 was first purchased from MolPort (MolPort -002-267-916) then made in-house at WEHI: the differences observed in EC50s across experiments are attributed to the different batches of M -833. For some experiments, 0, 0.25 or 2.5 mM of glucosamine (GlcN) was also added. Experiments were set up in technical duplicates or triplicates. Following a freeze -thaw cycle, lactate dehydrogenase (LDH) activity was assessed as an indicator of parasite growt h 5. 30 μL of parasite culture was incubated for 30 min in the dark with 75 μL Malstat mixture (0.1 M Tris pH 9.0, 20 g/L lactic acid, pH 7.5, 0.2% Triton-X100, 0.5 g/L acetylpyridine adenine dinucleotide (APAD, Sigma), 200 μg/mL nitroblue tetrazolium (NBT; Sigma), 1 μg/mL phenozine ethosulfate (PES; Sigma)). Absorbance was then measured at 650 nm, transformed using the formula below, plotted against the logarithm of the concentrations, and a non-linear regression (log(inhibitor) vs. response, variable slope) was calculated using GraphPad Prism to assess the half-inhibitory […]
Growth inhibition % = (1 − average(sample)− average(uRBC)) ∗ 100 […]
The DMSO samples were also used to assess growth of parasite in the presence of 0.25 and 2.5 mM GlcN (normalised by DMSO in 0 mM GlcN).
(§1) Egress, invasion & recovery assay. To measure egress, invasion and follow up recovery in the presence of different compounds, we adapted the method developed in6, using Hyp1-Nluc parasites7. These parasites episomally express the exported PEXEL protein Hyp1 (PF3D7_0113300) tagged with a NanoLuc luciferase (NLuc) and were selected with 2.5 nM WR99210 (Jacobus). Highly synchronised schizonts were obtained using ML10 (LifeArc) and sorbitol synchronisation, and Percoll-purified (the culture was gently layered over 67% Percoll (Cytiva) in RPMI, and centrifuged for 15 min at 1500 g and the schizont layer was collected and washed). In a 96-well plate, […]

Hyp1-Nluc parasites = experiment: Egress, invasion & recovery assay (Nluc bioluminescence, smears); type: cell-based, Plasmodium falciparum; conditions: W-991 60 nM
Excerpt: To measure egress, invasion, and follow-up recovery in the presence of different compounds, we adapted the method developed in[11], using Hyp1-Nluc parasites. A full description is in the Supplementary Information. […]
and compound 4. Note that M-833 was first purchased from MolPort (MolPort -002-267-916) then made in-house at WEHI: the differences observed in EC50s across experiments are attributed to the different batches of M -833. […]
as §1
cultures were set up in 4 replicates (3 replicates for the Nluc readout, and one replicate for Giemsa smears) with 1-2% parasitemia, 2% haematocrit, with the following […]
100 μg/ml heparin (Sigma) and 10 μM E64 (Sigma). The schizonts were allowed to egress and invade for 4 h at 37°C. A “background” plate without treatment was left in the fridge during this time. After 4 h, cultures were sorbitol -treated to eliminate schizonts that have not egressed. Smears were made every day for the following 3 days, and 5 μL of the resuspended cultures were taken to measure Nluc activity (to assess parasite’s presence). To measure Nluc activity, 5 μL culture were added to 45 μL NanoGlo reagent (1x Promega lysis buffer and NanoGlo reagent; Promega). The average luminescence of the background cultures was subtracted to the average luminescence of each sample. […]
The viable parasite value was then expressed in log units and parasite reduction ratio was calculated as a decrease in […]

Cc1cc(Cl)c(S(=O)(=O)N2CCCC2)cc1OCC(=O)NC1CCCCC1 [M-833]
effect of GlcN addition on EC50 (CR-N330K parasites): did not impact the EC50 | Growth inhibition assay, NORMALISED (CR-N330K parasites; 0 mM GlcN, conc 13333.3 nM): 83.0053 and 71.7328 and 58.9456 | Growth inhibition assay, NORMALISED (CR-N330K parasites; 0 mM GlcN, conc 40000 nM): 89.2357 and 89.8575 | NORMALISED (growth inhibition, LDH absorbance vs DMSO and uRBC) (CR-N330K parasites; 0.25 mM GlcN, M833 dilution point 1 of 10 (starting concentration 40 uM)): 90.8081 and 87.9797 and 87.1506 | NORMALISED (growth inhibition, LDH absorbance vs DMSO and uRBC) (CR-N330K parasites; 2.5 mM GlcN, M833 dilution point 1 of 10 (starting concentration 40 uM)): 93.6897 and 84.3760 and 68.7638 | NORMALISED (growth inhibition, LDH absorbance vs DMSO and uRBC) (CR-N330K parasites; 2.5 mM GlcN, M833 dilution point 2 of 10 from 40 uM start): 66.9588 and 63.6686 and 78.5050 | NORMALISED (growth inhibition, LDH absorbance vs DMSO and uRBC) (CR-N330K parasites; 2.5 mM GlcN, M833 dilution point 3 of 10 from 40 uM start): 62.4014 and 35.5339 and 55.9192 | fold resistance compared to CR-WT (CR-N330K parasites; Fig 2D): over 81 fold | inhibition at 40 µM (CR-N330K parasites; 0 mM GlcN, conc 40000 nM): 98.2% | inhibition at 0.00203221 µM (CR-N330K parasites; 0.25 mM GlcN): 1.04% | inhibition at 0.00609663 µM (CR-N330K parasites; 0.25 mM GlcN): 4.9% | inhibition at 0.0182899 µM (CR-N330K parasites; 0.25 mM GlcN): 1.5% | inhibition at 0.0548697 µM (CR-N330K parasites; 0.25 mM GlcN): 3.6% | inhibition at 0.164609 µM (CR-N330K parasites; 0.25 mM GlcN): -2.8% | inhibition at 0.493827 µM (CR-N330K parasites; 0.25 mM GlcN): 5.89% | inhibition at 1.48148 µM (CR-N330K parasites; 0.25 mM GlcN): 18.6% | inhibition at 4.44444 µM (CR-N330K parasites; 0.25 mM GlcN): 54.4% | inhibition at 13.3333 µM (CR-N330K parasites; 0.25 mM GlcN, conc 13333.3 nM): 83.8% | inhibition at 40 µM (CR-N330K parasites; 0.25 mM GlcN, conc 40000 nM): 98.3% | inhibition at 0.00203221 µM (CR-N330K parasites; 2.5 mM GlcN): -48.3% | inhibition at 0.00609663 µM (CR-N330K parasites; 2.5 mM GlcN): -31% | inhibition at 0.0182899 µM (CR-N330K parasites; 2.5 mM GlcN): -30.8% | inhibition at 0.0548697 µM (CR-N330K parasites; 2.5 mM GlcN): -27.3% | inhibition at 0.164609 µM (CR-N330K parasites; 2.5 mM GlcN): -23.4% | inhibition at 0.493827 µM (CR-N330K parasites; 2.5 mM GlcN): -11.7% | inhibition at 1.48148 µM (CR-N330K parasites; 2.5 mM GlcN): 13.1% | inhibition at 4.44444 µM (CR-N330K parasites; 2.5 mM GlcN): 36.6% | inhibition at 13.3333 µM (CR-N330K parasites; 2.5 mM GlcN, conc 13333.3 nM): 32.3% | inhibition at 40 µM (CR-N330K parasites; 2.5 mM GlcN, conc 40000 nM): 94% | pEC50 (CR-N330K parasites; 72 h, read-out: EC50 (95% confidence interval), Fig 2D, 72 h, n = 3): 5.02 | pEC50 (CR-N330K parasites; Fig 3F, 0 mM GlcN, n = 3, read-out: EC50 M-833 (95% confidence interval)): 5.02 | pEC50 (CR-N330K parasites; read-out: EC50 M-833 (95% confidence interval), Fig 3F, 0.25 mM GlcN, n = 3): 5.05 | pEC50 (CR-N330K parasites; read-out: EC50 M-833 (95% confidence interval), Fig 3F, 2.5 mM GlcN, n = 3): 5.06 | parasite morphology at 72 h after 4 h treatment (Hyp1-Nluc parasites; M-833 2 µM, Giemsa smears): resembled the dysmorphic ring-stage parasites | parasite growth (Nluc bioluminescence) followed 72 h after 4 h treatment (Hyp1-Nluc parasites; schizonts treated 4 h: M-833 2 µM, ML10 30 nM, E64 10 µM, heparin 100 µg/mL, then washed off): virtually no recovery after three days
